Test results from PubChem BioAssay AID720513 (Broad Institute, 2013).
Records with an inconclusive call do not appear.

What follows are compounds tested on U2OS PGC1a acetylation AlphaLISA, overnight (assay: activators raising PGC1a acetylation in cells, dose response, cell-based, cherry-picked samples, set 6 (AID 720513);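 note: cells made to overexpress flag tagged PGC1a plus GCN5 acetyltransferase by viral infection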).

`COc1ccc(N(C(=O)c2snc(C(N)=O)c2N)C(C(=O)NC2CCCCC2)c2ccc(C)o2)cc1` (centres undefined) and `COc1ccc(OC(=O)N(C)C[C@H]2OCc3ccccc3-c3c(n(C)c4ccccc34)C(=O)N([C@H](C)CO)C[C@H]2C)cc1` are within 1.5-fold of each other in AC40: 5.68 µM for the first, 6.06 µM for the second.

`C[C@@H]1CN([C@@H](C)CO)C(=O)c2c(c3ccccc3n2C)-c2ccccc2CO[C@@H]1CN(C)C(=O)Nc1ccc(F)cc1` and `C[C@@H]1CN([C@@H](C)CO)C(=O)c2c(c3ccccc3n2C)-c2ccccc2CO[C@@H]1CN(C)C(=O)Nc1ccc2c(c1)OCO2` are within 1.5-fold of each other in AC40: 7.76 µM for the first, 7.87 µM for the second.

Compared with `Cc1ccccc1-c1ccc(C2[C@@H]3CN(S(=O)(=O)c4ccccc4C)C[C@H]2N3)cc1` (some centres undefined), `COc1ccccc1-c1ccc(C2[C@@H]3CN(S(=O)(=O)c4ccc(C)cc4)C[C@H]2N3)cc1` (some centres undefined) is 1.5-fold higher in AC40: 12.9 µM for the first, 19.7 µM for the second.

First: O=C(Nc1cccc(C(F)(F)F)c1)c1sc(Cl)nc1C(F)(F)F
Second: O=C(Nc1cccnc1)c1ccc(Br)s1
The AC40 of the first is 5-fold higher: 3.01 µM for the first, 0.601 µM for the second.

`C[C@@H](c1ccccc1)N1Cc2ccccc2Oc2cc(Br)ccc2S1(=O)=O` and `C[C@H](CO)N1C[C@H](C)[C@@H](CN(C)Cc2ccc3c(c2)OCO3)Oc2cc(Br)ccc2S1(=O)=O` are within 1.5-fold of each other in AC40: 14.3 µM for the first, 18.6 µM for the second.

`COc1ccc(S(=O)(=O)N(C)CC(=O)Nc2cccc(C(C)=O)c2)cc1Cl` and `CC(=O)c1ccc(N2CCN(c3ccc(S(=O)(=O)NCCN(C)C)cc3[N+](=O)[O-])CC2)cc1` are within 1.5-fold of each other in AC40: 9.1 µM for the first, 6.58 µM for the second.

Going from `COc1cc(-c2nnn(CC#N)n2)ccc1OCc1ccccc1` to `COc1ccc(-n2nnnc2CNC(=O)c2ccc3ccccc3c2)cc1`, the AC40 rises from 0.296 µM to 6.36 µM (21-fold).

Compared with `C[C@@H]1CN([C@H](C)CO)C(=O)c2cc(N(C)C)ccc2O[C@@H](C)CCCCO[C@H]1CN(C)C(=O)Cc1ccccc1`, `COc1ccc(NC(=O)N(C)C[C@H]2OCc3ccccc3-c3c(n(C)c4ccccc34)C(=O)N([C@@H](C)CO)C[C@H]2C)c(OC)c1` is 1.6-fold lower in AC40: 5.69 µM for the first, 3.5 µM for the second.

`CCOCCn1c(CN(Cc2ccccc2)Cc2ccccc2)nc2c1c(=O)[nH]c(=O)n2C` and `CC(C)(C)n1nnnc1C(CCc1ccccc1)N1CCC2(CC1)C(=O)NCN2c1ccccc1` (centres undefined) are within 1.5-fold of each other in AC40: 5.12 µM for the first, 5.44 µM for the second.

Going from `CCSc1ccc(NC(=O)c2cccnc2)cc1` to `O=C(COc1ccc([N+](=O)[O-])cc1)Nc1ccc(C(=O)NCc2cccnc2)cc1`, the AC40 falls from 1.65 µM to 0.283 µM (5.8-fold).

First: CCOC(=O)c1nc(S(C)(=O)=O)ncc1Cl
Second: CCc1nnc(NC(=O)Cc2ccc(S(=O)(=O)N3CCCCC3)cc2)s1
The AC40 of the first is 10-fold lower: 1.65 µM for the first, 16.6 µM for the second.

`C[C@H]1CN([C@@H](C)CO)C(=O)c2cccc(NS(=O)(=O)c3ccc(F)cc3)c2O[C@H]1CN(C)Cc1ccc(C(F)(F)F)cc1` and `C[C@H]1CN([C@@H](C)CO)C(=O)c2cccc(NC(=O)c3cnccn3)c2O[C@H]1CN(C)Cc1ccc(C(=O)Nc2ccccc2N)cc1` cannot be ordered by AC40: 1.3 µM for the first, less than 2.6 µM for the second.

Compared with `O=C(C(Cc1ccccc1)n1cccc1)N1CCN(c2ccccc2)CC1` (centres undefined), `O=C(Nc1ccc(F)cc1)N1CCN(c2nc3ccccc3s2)CC1` is 2.8-fold lower in AC40: 7.54 µM for the first, 2.7 µM for the second.

Compared with `Cc1ccc2[nH]cc(C(=O)CN3CCN(c4ccccc4F)CC3)c2c1`, `CN1/C(=C\C(=O)c2cccc(S(=O)(=O)N3CCCCC3)c2)C(C)(C)c2ccccc21` is 3.6-fold higher in AC40: 2.99 µM for the first, 10.9 µM for the second.

First: C/C=C(/C)C(=O)O[C@@H]1c2cc(OC)c(OC)c(OC)c2-c2c(cc3c(c2OC)OCO3)C[C@H](C)[C@]1(C)O
Second: COc1ccccc1-c1ccc2c(c1)O[C@@H](CN(C)Cc1ccc3c(c1)OCO3)[C@@H](C)CN([C@@H](C)CO)S2(=O)=O
The AC40 of the first is 7.2-fold lower: 1.48 µM for the first, 10.6 µM for the second.

Compared with `COc1cccc(C(=O)c2c[nH]c(C(=O)NCc3cccnc3)c2)c1`, `O=C(NCc1ccccc1)C1Cc2c(-c3ccc(Cl)cc3)ccnc2O1` (centres undefined) is 4.4-fold higher in AC40: 1.4 µM for the first, 6.16 µM for the second.

Compared with `O=C(CN1CCC(n2nnc3ccccc32)CC1)NCc1cccs1`, `c1ccc(Cn2nnnc2C(c2cccs2)N2CCCCCC2)cc1` (centres undefined) is 8.5-fold higher in AC40: 1.67 µM for the first, 14.2 µM for the second.

Compared with `CC1(C)OC(C)(C)/C(=C\c2ccc(OCC(N)=O)cc2)C1=O`, `Cc1ccc(S(=O)(=O)NC(CC(C)C)C(=O)N2CCCCCCC2)cc1` (centres undefined) is 4.2-fold lower in AC40: 6.64 µM for the first, 1.59 µM for the second.

`Cc1cc(N2CCC(C(N)=O)CC2)nc(-c2ccccc2)n1` and `COc1ccc(-c2csc3nc(C)nc(N4CCC(C)CC4)c23)cc1OC` are within 1.5-fold of each other in AC40: 3.95 µM for the first, 3.8 µM for the second.

Going from `Fc1ccc(-c2nn3c(C4COc5ccccc5O4)nnc3s2)cc1` (centres undefined) to `COc1cccc(-c2ccc(C3[C@@H]4CN(Cc5ccccn5)C[C@H]3N4)cc2)c1` (some centres undefined), the AC40 rises from 1.01 µM to 13.5 µM (13-fold).

Compared with `C[C@H]1CN([C@@H](C)CO)C(=O)c2cccc(NC(=O)Nc3cccc4ccccc34)c2O[C@H]1CN(C)Cc1ccc(C(=O)Nc2ccccc2N)cc1`, `CCOC(=O)N1CCN(C(=O)C(NS(=O)(=O)c2cccc3nsnc23)c2ccccc2)CC1` (centres undefined) is 2.4-fold higher in AC40: 7.53 µM for the first, 17.9 µM for the second.

Going from `Cc1coc2cc3oc(=O)c(CCC(=O)NC4CC4)c(C)c3cc12` to `Cc1cc(C)c2nc(N(CCCN(C)C)C(=O)c3ccc(S(=O)(=O)N4CCCCCC4)cc3)sc2c1`, the AC40 rises from 1.6 µM to 2.9 µM (1.8-fold).

First: Cc1cccc(-c2ccc(C3[C@@H]4CN(C(=O)C5CCCCC5)C[C@H]3N4)cc2)c1 (some centres undefined)
Second: O=C(NCCC1CCCCN1S(=O)(=O)c1cccs1)C(=O)Nc1ccc(F)cc1F (centres undefined)
The AC40 of the first is 1.6-fold lower: 6.09 µM for the first, 9.6 µM for the second.

First: Nc1ccc(N2CCCCC2)cc1N1CCCCC1
Second: CCn1c(=S)[nH]c2cc(S(=O)(=O)N3CCCCC3)ccc21
The AC40 of the first is 3.7-fold higher: 5.98 µM for the first, 1.62 µM for the second.

`O=C(Nc1ccc(F)cc1F)N1CCCN(c2ccc([N+](=O)[O-])cn2)CC1` was tested, and the AC40 was 3.36 µM.
